Laboratory results taken from patent US9163256B2, “Mutant receptors and their use in a nuclear receptor-based inducible gene expression system” (priority 2004, dated 2015).

Assays:
Assay in all cases: cell-based
CfEcR-DEF mutant V96E = CfEcR-DEF mutant V96E (Choristoneura fumiferana, UniProt O77255, V379E); settings: mutant V96E
Method: (§1) This construct was prepared in the same way as in switch 1.1 above except wild-type CfEcR-DEF was replaced with mutant CfEcR-DEF comprising a ligand binding domain comprising a substitution mutation selected from Table 1 below.
(§2) DNAs were transfected into mouse NIH3T3 cells (ATCC) as follows. Standard methods for culture and maintenance of the cells were followed. Cells were harvested and plated 96-well plates at 2,500 cells per well, in 50 μL of growth medium containing 10% fetal bovine serum (FBS). Twenty-four hours later, the cells were treated with 35 μL of serum-free growth medium containing either dimethylsulfoxide (DMSO; control) or a DMSO solution of ligand. The cells were then transfected using Superfect (Qiagen Inc.) transfection reagent. For each well, 0.625 μL of Superfect was mixed with 14.2 μL of serum-free growth medium. 0.16 μg of reporter construct and 0.04 μg of each receptor construct were added to the transfection reagent mix. The contents of the transfection mix were mixed in a vortex mixer and let stand at room temperature for 30 minutes. At the end of incubation, 15 μL of transfection mix was added to the cells. The cells were maintained at 37° C. and 5% CO2 for 48 hours in 5% FBS.
(§3) Reporter Assays: Cells were harvested 40 hours after adding ligands. 125 μL of passive lysis buffer (part of Dual-Luciferase reporter assay system from Promega Corporation) were added to each well of the […] plate. The plates were placed on a rotary shaker for 15 minutes. Twenty μL of lysate were assayed. Luciferase activity was measured using Dual-Luciferase reporter assay system from Promega Corporation following the manufacturer's instructions. Fold induction (FI) activities were calculated by dividing relative light units (“RLU”) in ligand treated cells with RLU in DMSO treated cells (untreated control).

CfEcR-DEF mutant F109M = CfEcR-DEF mutant F109M (Choristoneura fumiferana, UniProt O77255, F392M); settings: mutant F109M
Method: as §1, §2, §3

CfEcR-DEF mutant W238E = CfEcR-DEF mutant W238E (Choristoneura fumiferana, UniProt O77255, W521E); settings: mutant W238E
Method: as §1, §2, §3

CfEcR-DEF mutant F48W = CfEcR-DEF mutant F48W (Choristoneura fumiferana, UniProt O77255, F331W); settings: mutant F48W
Method: as §1, §2, §3

CfEcR-DEF mutant T52P = CfEcR-DEF mutant T52P (Choristoneura fumiferana, UniProt O77255, T335P); settings: mutant T52P
Method: as §1, §2, §3

CfEcR-DEF mutant V128F = CfEcR-DEF mutant V128F (Choristoneura fumiferana, UniProt O77255, V411F); settings: mutant V128F
Method: as §1, §2, §3

CfEcR-DEF mutant Y120M = CfEcR-DEF mutant Y120M (Choristoneura fumiferana, UniProt O77255, Y403M); settings: mutant Y120M
Method: as §1, §2, §3

CfEcR-DEF mutant F48Y = CfEcR-DEF mutant F48Y (Choristoneura fumiferana, UniProt O77255, F331Y); settings: mutant F48Y
Method: as §1, §2, §3

CfEcR-DEF mutant A110N = CfEcR-DEF mutant A110N (Choristoneura fumiferana, UniProt O77255, A393N); settings: mutant A110N
Method: as §1, §2, §3

CfEcR-DEF mutant F109L = CfEcR-DEF mutant F109L (Choristoneura fumiferana, UniProt O77255, F392L); settings: mutant F109L
Method: as §1, §2, §3

CfEcR-DEF mutant R95W = CfEcR-DEF mutant R95W (Choristoneura fumiferana, UniProt O77255, R378W); settings: mutant R95W
Method: as §1, §2, §3

CfEcR-DEF mutant F109N = CfEcR-DEF mutant F109N (Choristoneura fumiferana, UniProt O77255, F392N); settings: mutant F109N
Method: as §1, §2, §3

CfEcR-DEF mutant L234I = CfEcR-DEF mutant L234I (Choristoneura fumiferana, UniProt O77255, L517I); settings: mutant L234I
Method: as §1, §2, §3

CfEcR-DEF mutant V96L = CfEcR-DEF mutant V96L (Choristoneura fumiferana, UniProt O77255, V379L); settings: mutant V96L
Method: as §1, §2, §3

CfEcR-DEF mutant A110P = CfEcR-DEF mutant A110P (Choristoneura fumiferana, UniProt O77255, A393P); settings: mutant A110P
Method: as §1, §2, §3

CfEcR-DEF mutant M125P = CfEcR-DEF mutant M125P (Choristoneura fumiferana, UniProt O77255, M408P); settings: mutant M125P
Method: as §1, §2, §3

CfEcR-DEF mutant T52L = CfEcR-DEF mutant T52L (Choristoneura fumiferana, UniProt O77255, T335L); settings: mutant T52L
Method: as §1, §2, §3

CfEcR-DEF mutant F109W = CfEcR-DEF mutant F109W (Choristoneura fumiferana, UniProt O77255, F392W); settings: mutant F109W
Method: as §1, §2, §3

CfEcR-DEF mutant M54T = CfEcR-DEF mutant M54T (Choristoneura fumiferana, UniProt O77255, M337T); settings: mutant M54T
Method: as §1, §2, §3

CfEcR-DEF mutant V96S = CfEcR-DEF mutant V96S (Choristoneura fumiferana, UniProt O77255, V379S); settings: mutant V96S
Method: as §1, §2, §3

[1] = relative to max fold induction of GS-E ligand

Chain of CfEcR-DEF mutant A110N (O77255 entry or part of it A393N): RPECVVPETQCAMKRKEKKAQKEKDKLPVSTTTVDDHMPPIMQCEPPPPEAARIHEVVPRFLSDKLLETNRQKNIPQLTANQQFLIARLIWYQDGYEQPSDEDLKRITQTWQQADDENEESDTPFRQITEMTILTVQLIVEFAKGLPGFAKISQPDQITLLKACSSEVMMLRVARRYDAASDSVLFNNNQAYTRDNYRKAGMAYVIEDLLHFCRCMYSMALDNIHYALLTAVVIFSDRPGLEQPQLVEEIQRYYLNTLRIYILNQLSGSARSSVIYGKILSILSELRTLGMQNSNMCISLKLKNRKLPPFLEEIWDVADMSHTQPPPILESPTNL
Chain of CfEcR-DEF mutant A110N (P28702 299-449, stated change not applied, further chain): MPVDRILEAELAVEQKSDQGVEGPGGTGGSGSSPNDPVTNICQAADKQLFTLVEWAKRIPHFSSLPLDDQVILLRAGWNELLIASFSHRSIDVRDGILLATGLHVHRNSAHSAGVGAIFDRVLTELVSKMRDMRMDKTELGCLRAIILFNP
Chain of CfEcR-DEF mutant R95W (O77255 entry or part of it R378W): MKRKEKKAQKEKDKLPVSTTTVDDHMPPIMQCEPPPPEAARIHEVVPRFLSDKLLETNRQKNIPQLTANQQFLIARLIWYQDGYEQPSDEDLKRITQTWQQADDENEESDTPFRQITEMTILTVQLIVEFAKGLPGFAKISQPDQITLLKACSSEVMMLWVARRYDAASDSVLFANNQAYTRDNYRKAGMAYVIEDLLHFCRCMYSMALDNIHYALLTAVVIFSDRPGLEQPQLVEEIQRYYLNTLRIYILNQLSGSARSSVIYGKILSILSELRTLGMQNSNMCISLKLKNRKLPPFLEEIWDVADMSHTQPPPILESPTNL
Chain of CfEcR-DEF mutant R95W (P28702 299-449, further chain): as the sequence (P28702 299-449, stated change not applied, further chain) above
Chain of CfEcR-DEF mutant F109N (P28702 299-449): as the sequence (P28702 299-449, stated change not applied, further chain) above
Chain of CfEcR-DEF mutant F109N (O77255 entry or part of it F392N): as the sequence (O77255 entry or part of it A393N) above, with F186N, N187A counted along it
Chain of CfEcR-DEF mutant M125P (P28702 299-449): as the sequence (P28702 299-449, stated change not applied, further chain) above
Chain of CfEcR-DEF mutant M125P (O77255 entry or part of it M408P): as the sequence (O77255 entry or part of it R378W) above, with W160R, M190P counted along it
Chain of CfEcR-DEF mutant F109L (P28702 299-449): as the sequence (P28702 299-449, stated change not applied, further chain) above
Chain of CfEcR-DEF mutant F109L (O77255 entry or part of it F392L): as the sequence (O77255 entry or part of it A393N) above, with F186L, N187A counted along it
Chain of CfEcR-DEF mutant W238E (P28702 299-449): as the sequence (P28702 299-449, stated change not applied, further chain) above
Chain of CfEcR-DEF mutant W238E (O77255 entry or part of it W521E): as the sequence (O77255 entry or part of it R378W) above, with W160R, W303E counted along it
Chain of CfEcR-DEF mutant V128F (P28702 299-449): as the sequence (P28702 299-449, stated change not applied, further chain) above
Chain of CfEcR-DEF mutant V128F (O77255 entry or part of it V411F): as the sequence (O77255 entry or part of it R378W) above, with W160R, V193F counted along it
Chain of CfEcR-DEF mutant F48W (P28702 299-449): as the sequence (P28702 299-449, stated change not applied, further chain) above
Chain of CfEcR-DEF mutant F48W (O77255 entry or part of it F331W): as the sequence (O77255 entry or part of it A393N) above, with F125W, N187A counted along it
Chain of CfEcR-DEF mutant L234I (P28702 299-449): as the sequence (P28702 299-449, stated change not applied, further chain) above
Chain of CfEcR-DEF mutant L234I (O77255 entry or part of it L517I): as the sequence (O77255 entry or part of it A393N) above, with N187A, L311I counted along it

CC(C)(O)CC[C@@H](O)[C@](C)(O)[C@H]1CC[C@@]2(O)C3=CC(=O)[C@@H]4C[C@@H](O)[C@@H](O)C[C@]4(C)[C@H]3CC[C@]12C [20E, 20-hydroxyecdysone]
1.29: Rel Max FI (CfEcR-DEF mutant M125P)
> 33 µM: EC50 (CfEcR-DEF mutant V96E; read-out: EC50) | EC50 (CfEcR-DEF mutant F109M; read-out: EC50) | EC50 (CfEcR-DEF mutant W238E; read-out: EC50) | EC50 (CfEcR-DEF mutant F48W; read-out: EC50) | EC50 (CfEcR-DEF mutant T52P; read-out: EC50) | EC50 (CfEcR-DEF mutant Y120M; read-out: EC50) | EC50 (CfEcR-DEF mutant F48Y; read-out: EC50) | EC50 (CfEcR-DEF mutant A110N; read-out: EC50) | EC50 (CfEcR-DEF mutant F109L; read-out: EC50) | EC50 (CfEcR-DEF mutant R95W; read-out: EC50) | EC50 (CfEcR-DEF mutant F109N; read-out: EC50) | EC50 (CfEcR-DEF mutant L234I; read-out: EC50) | EC50 (CfEcR-DEF mutant V96L; read-out: EC50) | EC50 (CfEcR-DEF mutant A110P; read-out: EC50) | EC50 (CfEcR-DEF mutant M125P; read-out: EC50) | EC50 (CfEcR-DEF mutant T52L; read-out: EC50) | EC50 (CfEcR-DEF mutant F109W; read-out: EC50) | EC50 (CfEcR-DEF mutant M54T; read-out: EC50) | EC50 (CfEcR-DEF mutant V96S; read-out: EC50)
~10 µM: EC50 (CfEcR-DEF mutant V128F; read-out: EC50)
0: Rel Max FI (CfEcR-DEF mutant V96E) | Rel Max FI (CfEcR-DEF mutant F109M; [1]) | Rel Max FI (CfEcR-DEF mutant W238E) | Rel Max FI (CfEcR-DEF mutant F48W; [1]) | Rel Max FI (CfEcR-DEF mutant Y120M) | Rel Max FI (CfEcR-DEF mutant F48Y; [1]) | Rel Max FI (CfEcR-DEF mutant A110N; [1]) | Rel Max FI (CfEcR-DEF mutant R95W) | Rel Max FI (CfEcR-DEF mutant F109N) | Rel Max FI (CfEcR-DEF mutant L234I) | Rel Max FI (CfEcR-DEF mutant V96L) | Rel Max FI (CfEcR-DEF mutant A110P; [1]) | Rel Max FI (CfEcR-DEF mutant T52L; [1]) | Rel Max FI (CfEcR-DEF mutant F109W; [1]) | Rel Max FI (CfEcR-DEF mutant M54T; [1])
0.02: Rel Max FI (CfEcR-DEF mutant T52P) | Rel Max FI (CfEcR-DEF mutant V128F) | Rel Max FI (CfEcR-DEF mutant V96S; [1])
0.09: Rel Max FI (CfEcR-DEF mutant F109L)
